Experiments:
21 day old female rats = assay: In vivo assay in rats for release of LH and FSH; design: species or system rat; conditions: for Serum FSH ng/ml SEM / Serum LH ng/ml SEM: Table IX, blood sample at ±60 minutes; for Serum FSH ng/ml SEM / Serum LH ng/ml SEM / FSH ng/ml Serum ± SEM at +120 min / LH ng/ml Serum ± SEM at +120 min: mean of 6; for FSH ng/ml Serum ± SEM at +120 min / LH ng/ml Serum ± SEM at +120 min: Table X; for +2 hrs LH ± SEM ng/ml serum / FSH ± SEM ng/ml serum (+2 hrs) / +3 hrs LH ± SEM ng/ml serum / FSH ± SEM ng/ml serum (+3 hrs): Table XI, 150 ng sc, mean 5-6
Procedure: In vivo rat assay performed by a modification of the method of Bowers, C. Y. et al. Endocrinology, 106, 674 (1980). 21 day old female rats were injected sc with saline or peptide. Blood samples for the RIAs of LH and FSH were collected at +15, +60, +120, or +180 minutes. (Tables VI-XI).

[1] = test system: pituitary cells from 21 day old rats; assay: In vitro pituitary incubate assay (release of LH and FSH); format: cell-based, rat; conditions: mean of 9
Procedure: The data in Tables IV and V are from the in vitro assay of the peptides with the pituitary incubate. This assay measures the release of LH and FSH in an in vitro system with pituitary cells from 21 day old rats. See, Bowers, C. Y. et al. on the inhibitory effects of leutinizing hormone releasing hormone analogs. Endocrinology, 106: 674 (1980).
The abbreviations are as follows: sc-subcutaneous, SEM-standard error of the mean; NS-not significant; ng-nanogram, and ml-milliliter. The p value represents the population coefficient .rho.(rho) which signifies whether a sample coefficient is significant or a chance deviation from zero.

[2] = Table IV, dosage 0.03 ng/ml medium
[3] = Table IV, dosage 0.1 ng/ml medium
[4] = Table IV, dosage 0.3 ng/ml medium
[5] = Table IV, dosage 1.0 ng/ml medium
[6] = Table V, dosage .03 ng/ml medium
[7] = Table V, dosage .10 ng/ml medium
[8] = Table V, dosage .30 ng/ml medium
[9] = Table VI, 15 ng/rat sc, mean of 9
[10] = Table VI, 50 ng/rat sc, mean of 9
[11] = Table VI, 150 ng/rat sc, mean of 9
[12] = Table VIII first section (time not given), 15 ng/rat sc, mean of 5-6
[13] = Table VIII first section (time not given), 50 ng/rat sc, mean of 5-6
[14] = Table VIII first section (time not given), 150 ng/rat sc, mean of 5-6
[15] = Table VIII, ±60 min after injection, 150 ng/rat sc, mean of 5-6

## CCNC(=O)[C@@H]1CCCN1C(=O)[C@H](CCCNC(=N)N)NC(=O)[C@H](CC(C)C)NC(=O)[C@@H](Cc1cccnc1)NC(=O)[C@H](Cc1ccc(O)cc1)NC(=O)[C@H](CO)NC(=O)[C@H](Cc1c[nH]c2ccccc12)NC(=O)[C@H](Cc1c[nH]cn1)NC(=O)[C@@H]1CCC(=O)N1 [Peptide 21436, pyroGlu-His-Trp-Ser-Tyr-D-3-Pal-Leu-Arg-Pro-NHC2 H5]
21 day old female rats; 50 ng/rat sc
  Serum FSH ng/ml SEM: 3471 ± 229 ng/mL
  Serum LH ng/ml SEM: 116 ± 20 ng/mL
  FSH ng/ml Serum ± SEM at +120 min: 4692 ± 393 ng/mL
  LH ng/ml Serum ± SEM at +120 min: 291 ± 11 ng/mL
21 day old female rats; 150 ng/rat sc
  Serum FSH ng/ml SEM: 1458 ± 424 ng/mL
  Serum LH ng/ml SEM: 144 ± 37 ng/mL
  FSH ng/ml Serum ± SEM at +120 min: 4811 ± 782 ng/mL
  LH ng/ml Serum ± SEM at +120 min: 278 ± 14 ng/mL
21 day old female rats
  +2 hrs LH ± SEM ng/ml serum: 237 ± 52 ng/mL
  FSH ± SEM ng/ml serum (+2 hrs): 2415 ± 361 ng/mL
  +3 hrs LH ± SEM ng/ml serum: 106 ± 13 ng/mL
  FSH ± SEM ng/ml serum (+3 hrs): 2205 ± 298 ng/mL

## CNC(=O)[C@@H]1CCCN1C(=O)[C@H](CCCNC(=N)N)NC(=O)[C@H](CC(C)C)NC(=O)[C@@H](Cc1cccnc1)NC(=O)[C@H](Cc1ccc(O)cc1)NC(=O)[C@H](CO)NC(=O)[C@H](Cc1c[nH]c2ccccc12)NC(=O)[C@H](Cc1c[nH]cn1)NC(=O)[C@@H]1CCC(=O)N1 [Peptide 21437, pryoGlu-His-Trp-Ser-Tyr-D-3-Pal-Leu-Arg-Pro-NHCH3]
21 day old female rats; 50 ng/rat sc
  Serum FSH ng/ml SEM: 1707 ± 518 ng/mL
  Serum LH ng/ml SEM: 47 ± 8 ng/mL
21 day old female rats; 150 ng/rat sc
  Serum FSH ng/ml SEM: 2799 ± 783 ng/mL
  Serum LH ng/ml SEM: 111 ± 26 ng/mL

## LHRH: peptide hormone known as the leutinizing hormone releasing hormone, exists naturally in the hypothalamus
[1]; [2]
  FSH released into medium (ng/ml) ± SEM: 638 ± 292
  LH ng/ml medium ± SEM: 52 ± 20 ng/mL
[1]; [3]
  FSH released into medium (ng/ml) ± SEM: 266 ± 235
  LH ng/ml medium ± SEM: 214 ± 30 ng/mL
[1]; [4]
  FSH released into medium (ng/ml) ± SEM: 4556 ± 752
  LH ng/ml medium ± SEM: 771 ± 162 ng/mL
[1]; [5]
  FSH released into medium (ng/ml) ± SEM: 8063 ± 943
  LH ng/ml medium ± SEM: 1434 ± 156 ng/mL
[1]; [6]
  FSH ng/ml medium ± SEM: 598 ± 137 ng/mL
  LH ng/ml medium ± SEM: 33 ± 24 ng/mL
[1]; [7]
  FSH ng/ml medium ± SEM: 794 ± 52 ng/mL
  LH ng/ml medium ± SEM: 206 ± 42 ng/mL
[1]; [8]
  FSH ng/ml medium ± SEM: 2709 ± 252 ng/mL
  LH ng/ml medium ± SEM: 892 ± 92 ng/mL
21 day old female rats; 50 ng/rat sc
  Serum FSH ng/ml SEM: 909 ± 118 ng/mL
  Serum LH ng/ml SEM: 5 ± 0.5 ng/mL
21 day old female rats; 150 ng/rat sc
  Serum FSH ng/ml SEM: 1076 ± 185 ng/mL
  Serum LH ng/ml SEM: 17 ± 3 ng/mL
21 day old female rats; [9]
  Serum FFSH ng/ml ± SEM: 475 ± 43 ng/mL
  Serum LH ng/ml ± SEM: 1.3 ± 0.2 ng/mL
21 day old female rats; [10]
  Serum FFSH ng/ml ± SEM: 572 ± 68 ng/mL
  Serum LH ng/ml ± SEM: 3.2 ± 0.3 ng/mL
21 day old female rats; [11]
  Serum FFSH ng/ml ± SEM: 839 ± 73 ng/mL
  Serum LH ng/ml ± SEM: 12 ± 3 ng/mL
21 day old female rats; Table VII, dosage 100 mg/rat sc (so in the source), ± 15 min
  LH ng/ml Serum ± SEM ± 15 min: 49 ± 10 ng/mL
21 day old female rats; Table VII, dosage 100 mg/rat sc (so in the source), ± 60 min
  LH ng/ml Serum ± SEM ± 60 min: 5.5 ± 0.9 ng/mL
21 day old female rats; [12]
  Serum FSH ng/ml ± SEM: 1147 ± 489 ng/mL
  Serum LH ng/ml ± SEM: 21.0 ± 4.0 ng/mL
21 day old female rats; [13]
  Serum FSH ng/ml ± SEM: 2228 ± 448 ng/mL
  Serum LH ng/ml ± SEM: 53.9 ± 9.0 ng/mL
21 day old female rats; [14]
  Serum FSH ng/ml ± SEM: 1536 ± 172 ng/mL
  Serum LH ng/ml ± SEM: 62.0 ± 21.0 ng/mL
21 day old female rats; [15]
  Serum FSH ng/ml ± SEM: 2448 ± 209 ng/mL
  Serum LH ng/ml ± SEM: 39.0 ± 17 ng/mL
21 day old female rats
  +2 hrs LH ± SEM ng/ml serum: .18 ± 0.07 ng/mL
  FSH ± SEM ng/ml serum (+2 hrs): 337 ± 20 ng/mL
  +3 hrs LH ± SEM ng/ml serum: 0.66 ± 0.46 ng/mL
  FSH ± SEM ng/ml serum (+3 hrs): 487 ± 72 ng/mL
21 day old female rats; dosage of 15 ng
  FSH released: 572 ± 68 ng
  release of LH (in words): inactive

Source: US4642332A, “Effective hormonal peptides: D-3-Pal^6 -LHRH” (The Board of Regents, The University of Texas System, priority 1985, dated 1987)
